The record followed here is patent US12594289B2, “Potentiation of antibiotic effect” (The University of North Carolina at Chapel Hill, priority 2017, dated 2026).

In brackets after ≈: the same amount, converted by molar mass. Like-named read-outs stand apart in the source and are kept apart here.

What all share (assay type): cell-based, Staphylococcus aureus
Assay [1] deals with S. aureus HG003. Description: Propidium iodide uptake, membrane permeability (Example 11).
For assay [2], the system named is S. aureus HG003. Description: Killing by permeabilizing molecules in combination with tobramycin over 24 hours (Example 11).
For assay [3], the system named is S. aureus HG003. In words: microbe, parasite or virus in culture. The following applies: for MIC: Staphylococcus aureus.
For assay [4], the system named is S. aureus HG003, arsenate treated. Description: Killing of low energy (arsenate treated) S. aureus (Example 6). The following applies: tobramycin 58 μg/ml, arsenate 1 mM.
Assay [5] concerns S. aureus HG003. Description: Killing in the presence of protein synthesis inhibitor linezolid (Example 8). The following applies: tobramycin 58 μg/ml, linezolid 50 μg/ml.
For assay [6], the system named is S. aureus HG003 menD mutant (SCV).
The subject of assay [7] is S. aureus HG003. In words: Killing of S. aureus by tobramycin with or without rhamnolipids (Example 4). Particulars: tobramycin 58 μg/ml alone.

As for `CCCCCCCCCCCC(=O)OCC(O)CO` (stereo not drawn) [glycerol monolaureate], in assay [1], the “lethality to S. aureus alone” value was “not lethal” and the “permeabilization of S. aureus (propidium iodide uptake)” value is given as “permeabilize”. In addition, in assay [2], the “potentiation of tobramycin killing over 24 hours” value is “significant potentiation”.

In the case of `Cc1onc(-c2ccccc2)c1C(=O)N[C@@H]1C(=O)N2[C@@H]1SC(C)(C)[C@@H]2C(=O)O` [oxacillin], the “effect of the presence of P. aeruginosa supernatant on MIC” value in assay [3] is listed as “not affected”. Besides, the MIC in assay [3] (HG003) and in assay [3] (PA14 / PAO1) was 0.39 µg/mL (≈ 0.971 µM) throughout.

As for `CCCCCC/C=C\CCCCCCCC(=O)O` [palmitoleic acid], in assay [1], the “lethality to S. aureus alone” value is “not lethal” and the “permeabilization of S. aureus (propidium iodide uptake)” value is given as “permeabilize”. In assay [2] (in combination with tobramycin), the “potentiation of tobramycin killing over 24 hours” value is listed as “significant potentiation”.

In the case of `NC[C@H]1O[C@H](O[C@H]2[C@H](O)[C@@H](O[C@H]3O[C@H](CO)[C@@H](O)[C@H](N)[C@H]3O)[C@H](N)C[C@@H]2N)[C@H](N)C[C@@H]1O` [tobramycin], the “killing of S. aureus under arsenate-induced low ATP” value in assay [4] is “fails to kill”. Also, the MIC in assay [3] (PA14) was 0.39 µg/mL (≈ 0.834 µM); in assay [3] (PA14 / PAO1) it was 3.12 to 6.25 µg/mL (≈ 6.68 to 13.4 µM). For the same molecule, the “killing in the presence of linezolid” value in assay [5] is on record as “fails to kill”. The “susceptibility of the menD mutant” value in assay [6] was “resistant”. Further, the “survivors after 12 hours” value in assay [7] was 10^4.

With `CN[C@H](CC(C)C)C(=O)N[C@H]1C(=O)N[C@@H](CC(N)=O)C(=O)N[C@H]2C(=O)N[C@H]3C(=O)N[C@H](C(=O)N[C@H](C(=O)O)c4cc(O)cc(O)c4-c4cc3ccc4O)[C@H](O)c3ccc(c(Cl)c3)Oc3cc2cc(c3O[C@@H]2O[C@H](CO)[C@@H](O)[C@H](O)[C@H]2O[C@H]2C[C@](C)(N)[C@H](O)[C@H](C)O2)Oc2ccc(cc2Cl)[C@H]1O` [vancomycin], in assay [3], the “effect of the presence of P. aeruginosa supernatant on MIC” value is “not affected”. In addition, the MIC in assay [3] (HG003) and in assay [3] (PA14 / PAO1) was 1.25 µg/mL (≈ 0.863 µM) in each case.
